Like-named read-outs stand apart in the source and are kept apart here. Positions of bridges follow the written chain, without caps; N, C: chain ends. Non-standard residues stand in square brackets, D forms with d. Residues, ends and D or L forms follow the SMILES beside them. Arg(Me2s) = CN=C(NC)NCCC[C@H](N)C(=O)O
Key:
Assay in all cases: cell-based
[1] = target: T1, hNav1.3 (Homo sapiens, UniProt Q9NY46); assay type: cell-based; conditions: Nav1.3 Use IC50
[2] = target: T2, hNav1.5 (Homo sapiens, UniProt Q14524)
[3] = target: T3, hNav1.7 (Homo sapiens, UniProt Q15858); conditions: Nav1.7 Use IC50
[4] = target: T1, hNav1.3; conditions: IonWorks Quattro, use-dependent block, hNav1.3; read-out: IWQ Use Nav1.3
[5] = target: T3, hNav1.7; assay type: cell-based; conditions: IonWorks Quattro, use-dependent block, hNav1.7; read-out: IWQ Use Nav1.7
[6] = target: T2, hNav1.5; conditions: IonWorks Quattro, use-dependent block, hNav1.5; read-out: IWQ Use Nav1.5

T2 sequence (Q14524 whole entry, looked up): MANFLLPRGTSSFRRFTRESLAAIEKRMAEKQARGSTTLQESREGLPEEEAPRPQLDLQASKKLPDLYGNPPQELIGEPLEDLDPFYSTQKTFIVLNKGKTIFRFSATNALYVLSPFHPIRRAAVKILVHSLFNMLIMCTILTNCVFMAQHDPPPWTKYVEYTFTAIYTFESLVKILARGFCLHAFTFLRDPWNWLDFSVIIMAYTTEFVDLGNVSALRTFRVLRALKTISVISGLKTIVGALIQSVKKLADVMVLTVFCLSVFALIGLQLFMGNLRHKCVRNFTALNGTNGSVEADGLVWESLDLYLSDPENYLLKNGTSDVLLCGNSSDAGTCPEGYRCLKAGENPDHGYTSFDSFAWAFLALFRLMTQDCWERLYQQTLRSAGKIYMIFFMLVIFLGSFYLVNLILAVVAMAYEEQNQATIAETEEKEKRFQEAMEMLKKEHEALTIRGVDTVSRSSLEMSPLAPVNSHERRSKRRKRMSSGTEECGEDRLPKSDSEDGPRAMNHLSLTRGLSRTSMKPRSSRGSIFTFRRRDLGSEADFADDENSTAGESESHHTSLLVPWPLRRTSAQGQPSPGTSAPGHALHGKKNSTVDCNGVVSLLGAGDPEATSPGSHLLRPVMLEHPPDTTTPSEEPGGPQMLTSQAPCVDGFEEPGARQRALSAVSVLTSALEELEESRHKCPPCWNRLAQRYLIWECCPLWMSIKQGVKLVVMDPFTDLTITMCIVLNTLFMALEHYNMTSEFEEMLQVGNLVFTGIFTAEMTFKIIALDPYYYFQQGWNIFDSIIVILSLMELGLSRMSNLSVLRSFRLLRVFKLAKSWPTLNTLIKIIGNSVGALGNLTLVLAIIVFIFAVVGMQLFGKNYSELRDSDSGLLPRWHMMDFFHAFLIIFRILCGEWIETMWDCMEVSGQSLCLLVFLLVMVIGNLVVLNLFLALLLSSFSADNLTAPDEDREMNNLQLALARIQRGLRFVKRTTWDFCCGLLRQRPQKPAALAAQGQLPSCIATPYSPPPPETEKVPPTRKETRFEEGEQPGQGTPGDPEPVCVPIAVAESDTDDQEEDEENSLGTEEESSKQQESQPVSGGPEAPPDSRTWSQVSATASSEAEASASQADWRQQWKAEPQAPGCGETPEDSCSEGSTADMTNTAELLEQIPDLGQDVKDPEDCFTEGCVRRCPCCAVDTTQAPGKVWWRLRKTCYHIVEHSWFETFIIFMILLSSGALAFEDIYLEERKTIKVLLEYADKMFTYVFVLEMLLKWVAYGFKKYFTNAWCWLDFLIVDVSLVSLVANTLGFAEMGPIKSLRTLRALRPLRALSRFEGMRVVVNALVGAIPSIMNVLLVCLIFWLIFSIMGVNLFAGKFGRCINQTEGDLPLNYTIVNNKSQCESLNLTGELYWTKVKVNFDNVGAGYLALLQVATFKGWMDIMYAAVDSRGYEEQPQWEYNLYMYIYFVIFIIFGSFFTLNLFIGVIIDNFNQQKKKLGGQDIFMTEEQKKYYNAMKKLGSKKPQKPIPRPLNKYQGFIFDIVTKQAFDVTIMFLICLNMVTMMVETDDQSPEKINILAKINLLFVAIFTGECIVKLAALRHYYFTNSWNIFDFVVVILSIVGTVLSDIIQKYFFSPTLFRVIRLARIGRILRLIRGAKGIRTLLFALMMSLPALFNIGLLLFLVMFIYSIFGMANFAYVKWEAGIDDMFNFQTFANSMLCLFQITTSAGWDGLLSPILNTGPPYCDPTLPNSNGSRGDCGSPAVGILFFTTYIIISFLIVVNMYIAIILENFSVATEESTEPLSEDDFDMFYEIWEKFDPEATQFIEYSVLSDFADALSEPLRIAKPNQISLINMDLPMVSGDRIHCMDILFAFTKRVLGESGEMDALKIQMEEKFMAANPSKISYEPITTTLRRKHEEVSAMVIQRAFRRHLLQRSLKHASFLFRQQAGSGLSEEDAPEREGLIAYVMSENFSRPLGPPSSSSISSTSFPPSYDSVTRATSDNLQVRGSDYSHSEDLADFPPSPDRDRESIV
T1 sequence (Q9NY46 whole entry, looked up): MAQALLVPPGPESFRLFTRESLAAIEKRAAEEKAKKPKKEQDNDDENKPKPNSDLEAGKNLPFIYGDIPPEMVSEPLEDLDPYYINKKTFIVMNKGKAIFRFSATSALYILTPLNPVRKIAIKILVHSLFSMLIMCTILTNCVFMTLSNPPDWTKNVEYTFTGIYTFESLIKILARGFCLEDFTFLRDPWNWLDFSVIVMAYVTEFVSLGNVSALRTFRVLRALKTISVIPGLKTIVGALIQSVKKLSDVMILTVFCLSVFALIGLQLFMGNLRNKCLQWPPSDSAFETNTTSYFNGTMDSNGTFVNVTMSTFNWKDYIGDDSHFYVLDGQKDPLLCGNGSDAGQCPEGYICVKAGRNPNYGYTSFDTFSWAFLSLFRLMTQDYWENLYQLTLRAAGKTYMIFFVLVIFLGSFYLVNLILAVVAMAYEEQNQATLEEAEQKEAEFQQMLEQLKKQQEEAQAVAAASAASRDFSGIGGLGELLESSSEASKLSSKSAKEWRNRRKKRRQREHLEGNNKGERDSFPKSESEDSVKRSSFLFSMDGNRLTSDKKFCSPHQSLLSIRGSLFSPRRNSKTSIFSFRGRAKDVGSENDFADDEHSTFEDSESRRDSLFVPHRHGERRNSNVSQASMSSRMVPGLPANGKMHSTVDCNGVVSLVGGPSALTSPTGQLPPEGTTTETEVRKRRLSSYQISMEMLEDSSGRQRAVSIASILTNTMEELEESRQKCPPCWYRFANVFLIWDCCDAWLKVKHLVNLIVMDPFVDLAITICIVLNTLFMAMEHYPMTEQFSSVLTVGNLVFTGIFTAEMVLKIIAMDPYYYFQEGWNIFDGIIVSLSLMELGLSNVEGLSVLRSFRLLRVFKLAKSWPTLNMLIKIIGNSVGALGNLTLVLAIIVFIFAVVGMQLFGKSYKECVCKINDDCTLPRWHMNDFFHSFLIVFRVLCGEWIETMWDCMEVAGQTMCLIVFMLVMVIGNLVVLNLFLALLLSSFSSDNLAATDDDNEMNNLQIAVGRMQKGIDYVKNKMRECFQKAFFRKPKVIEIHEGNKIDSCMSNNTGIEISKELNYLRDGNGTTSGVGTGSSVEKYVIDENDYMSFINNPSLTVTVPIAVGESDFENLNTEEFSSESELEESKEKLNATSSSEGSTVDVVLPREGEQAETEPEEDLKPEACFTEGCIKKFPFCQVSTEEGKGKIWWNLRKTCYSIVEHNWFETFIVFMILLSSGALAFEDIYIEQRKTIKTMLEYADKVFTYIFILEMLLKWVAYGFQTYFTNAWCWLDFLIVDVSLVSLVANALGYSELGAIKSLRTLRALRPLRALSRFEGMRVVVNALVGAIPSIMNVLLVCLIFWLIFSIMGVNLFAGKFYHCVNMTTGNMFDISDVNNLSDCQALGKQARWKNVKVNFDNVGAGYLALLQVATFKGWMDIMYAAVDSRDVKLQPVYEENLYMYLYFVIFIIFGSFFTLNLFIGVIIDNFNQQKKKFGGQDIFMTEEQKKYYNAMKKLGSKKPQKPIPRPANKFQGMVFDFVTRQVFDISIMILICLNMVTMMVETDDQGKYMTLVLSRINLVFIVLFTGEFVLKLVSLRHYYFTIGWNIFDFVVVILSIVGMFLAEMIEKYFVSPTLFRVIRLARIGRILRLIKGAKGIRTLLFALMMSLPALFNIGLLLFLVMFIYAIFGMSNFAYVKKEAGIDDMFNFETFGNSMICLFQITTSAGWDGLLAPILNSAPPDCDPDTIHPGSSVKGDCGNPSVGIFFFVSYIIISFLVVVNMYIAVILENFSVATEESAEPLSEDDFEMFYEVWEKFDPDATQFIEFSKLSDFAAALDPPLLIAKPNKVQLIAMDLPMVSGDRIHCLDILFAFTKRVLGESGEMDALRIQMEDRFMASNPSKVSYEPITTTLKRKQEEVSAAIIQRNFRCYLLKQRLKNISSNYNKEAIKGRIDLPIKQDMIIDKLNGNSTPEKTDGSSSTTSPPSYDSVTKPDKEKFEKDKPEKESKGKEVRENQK

Row | SMILES | IC50 [1] [nM] | IC50 [2] [nM] | IC50 [3] [nM] | IC50 [4] [nM] | IC50 [5] [nM] | IC50 [6] [nM]
1 | CC[C@H](C)[C@@H]1NC(=O)[C@@H]2CSSC[C@@H]3NC(=O)[C@H](C(C)C)NC(=O)[C@H](CC(C)C)NC(=O)[C@H](CC(N)=O)NC(=O)[C@@H]4CCCN4C(=O)[C@H](CCCNC(=N)N)NC(=O)[C@H](CSSC[C@H](NC(=O)[C@@H](N)CC(=O)O)C(=O)N[C@@H](CC(C)C)C(=O)NCC(=O)N[C@@H](C)C(=O)N[C@@H](Cc4ccccc4)C(=O)N[C@@H](CCCNC(=N)N)C(=O)N[C@@H](CCCCN)C(=O)N2)NC(=O)[C@H](CSSC[C@@H](C(=O)N[C@@H](CCCCN)C(=O)N[C@@H](Cc2ccc(O)cc2)C(=O)N[C@H](C(=O)N[C@@H](Cc2ccccc2)C(N)=O)C(C)C)NC(=O)[C@H](Cc2c[nH]c4ccccc24)NC(=O)[C@H](CCCCN)NC(=O)[C@H](Cc2cnc[nH]2)NC(=O)[C@H](CC(C)C)NC(=O)[C@H](CCCNC(=N)N)NC(=O)[C@H](CO)NC3=O)NC(=O)[C@H](CCCCN)NC(=O)[C@H](CC(=O)O)NC(=O)[C@H](CC(N)=O)NC(=O)[C@H](CC(=O)O)NC(=O)[C@@H]2CCCN2C1=O [[Ala5;Phe6;Leu26]GpTx-1(1-34)] (H-DCLGAFRKCIPDNDKCCRPNLVCSRLHKWCKYVF-NH2; disulfide 2-17, 9-23, 16-30) | 11 | – | – | – | – | –
2 | CC[C@H](C)[C@@H]1NC(=O)[C@@H]2CSSC[C@@H]3NC(=O)[C@H](C(C)C)NC(=O)[C@H](CC(C)C)NC(=O)[C@H](CC(N)=O)NC(=O)[C@@H]4CCCN4C(=O)[C@H](CCCNC(=N)N)NC(=O)[C@H](CSSC[C@H](NC(=O)[C@@H](N)CC(=O)O)C(=O)N[C@@H](CC(C)C)C(=O)NCC(=O)N[C@@H](Cc4ccccc4)C(=O)N[C@@H](CCSC)C(=O)N[C@@H](CCCNC(=N)N)C(=O)N[C@@H](CCCNC(=NC)NC)C(=O)N2)NC(=O)[C@H](CSSC[C@@H](C(=O)N[C@@H](CCCCN)C(=O)N[C@@H](Cc2ccc(O)cc2)C(=O)N[C@H](C(=O)N[C@@H](Cc2ccccc2)C(N)=O)C(C)C)NC(=O)[C@H](Cc2c[nH]c4ccccc24)NC(=O)[C@H](CCCCN)NC(=O)[C@H](Cc2c[nH]cn2)NC(=O)[C@H]([C@@H](C)O)NC(=O)[C@H](CCCNC(=N)N)NC(=O)[C@H](CO)NC3=O)NC(=O)[C@H](CCCCN)NC(=O)[C@H](CC(=O)O)NC(=O)[C@H](CC(N)=O)NC(=O)[C@H](CC(=O)O)NC(=O)[C@@H]2CCCN2C1=O [[SDMA8]GpTx-1(1-34)] (H-DCLGFMR[Arg(Me2s)]CIPDNDKCCRPNLVCSRTHKWCKYVF-NH2; disulfide 2-17, 9-23, 16-30) | – | > 10000 | 5 | 200 | 200 | 9050
3 | CC[C@H](C)[C@@H]1NC(=O)[C@@H]2CSSC[C@@H]3NC(=O)[C@H](C(C)C)NC(=O)[C@H](CC(C)C)NC(=O)[C@H](CC(N)=O)NC(=O)[C@@H]4CCCN4C(=O)[C@H](CCCNC(=N)N)NC(=O)[C@H](CSSC[C@H](NC(=O)[C@@H](N)CC(=O)O)C(=O)N[C@@H](CC(C)C)C(=O)NCC(=O)N[C@@H](Cc4ccccc4)C(=O)N[C@@H](CCSC)C(=O)N[C@@H](CCCNC(=N)N)C(=O)N[C@@H]([C@@H](C)O)C(=O)N2)NC(=O)[C@H](CSSC[C@@H](C(=O)N[C@@H](CCCCN)C(=O)N[C@@H](Cc2ccc(O)cc2)C(=O)N[C@H](C(=O)N[C@@H](Cc2ccccc2)C(N)=O)C(C)C)NC(=O)[C@H](Cc2c[nH]c4ccccc24)NC(=O)[C@H](CCCCN)NC(=O)[C@H](Cc2c[nH]cn2)NC(=O)[C@H]([C@@H](C)O)NC(=O)[C@H](CCCNC(=N)N)NC(=O)[C@H](CO)NC3=O)NC(=O)[C@H](CCCCN)NC(=O)[C@H](CC(=O)O)NC(=O)[C@H](CC(N)=O)NC(=O)[C@H](CC(=O)O)NC(=O)[C@@H]2CCCN2C1=O [[Thr8]GpTx-1(1-34)] (H-DCLGFMRTCIPDNDKCCRPNLVCSRTHKWCKYVF-NH2; disulfide 2-17, 9-23, 16-30) | – | > 10000 | 9 | 150 | 350 | 9860
